The values that follow are results of earlier work, collected in patent US6106863A, “Sustained-release metal valproate tablets” (priority 1996, dated 2000).

For data set [1] the following is noted: in vivo.

Take `CCCC(CCC)C(=O)[O-].[Na+]` [Sodium valproate]: the “water solubility (in words)” value is reported as “water-soluble”. Also, in data set [1], the “biological half-life (in words)” value is “short biological half-life” and the effective blood concentration was 50 to 100 µg/mL.
